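All cell lines were grown in 96-well plates and treated with compound for 48 hours. At the GI50, growth is halved.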 Calls of active or inactive are those of the source. Rule as the data show it: active = GI50 up to about 1.1 µM and inactive = higher.
Experiments:
Assay in all cases: NCI tumour cell line growth inhibition, 48 h
U-251 = tested on: U-251
SW-620 = tested on: SW-620
SN12C = tested on: SN12C
SK-MEL-28 = tested on: SK-MEL-28
MDA-N = tested on: MDA-N
MDA-MB-435 = tested on: MDA-MB-435
ACHN = tested on: ACHN
Malme-3M = tested on: Malme-3M
SF-539 = tested on: SF-539
IGROV-1 = tested on: IGROV-1
M14 = tested on: M14
NCI-H522 = tested on: NCI-H522
A498 = tested on: A498
SK-MEL-5 = tested on: SK-MEL-5
CCRF-CEM = tested on: CCRF-CEM
K562 = tested on: K562
SNB-19 = tested on: SNB-19
Hs-578T = tested on: Hs-578T
EKVX = tested on: EKVX
SK-OV-3 = tested on: SK-OV-3

Structure (SMILES)	GI50 (U-251)	GI50 (SW-620)	GI50 (SN12C)	GI50 (SK-MEL-28)	GI50 (MDA-N)	GI50 (MDA-MB-435)	GI50 (ACHN)	GI50 (Malme-3M)	GI50 (SF-539)	GI50 (IGROV-1)	GI50 (M14)	GI50 (NCI-H522)	GI50 (A498)	GI50 (SK-MEL-5)	GI50 (CCRF-CEM)	GI50 (K562)	GI50 (SNB-19)	GI50 (Hs-578T)	GI50 (EKVX)	GI50 (SK-OV-3)
O=C(/C=C/c1ccc(O)c(O)c1)OCCc1cccc2ccccc12	6.15 µM (inactive)	5.07 µM (inactive)	2.56 µM (inactive)	4.15 µM (inactive)	1.87 µM (inactive)	2.02 µM (inactive)	3.78 µM (inactive)	6.5 µM (inactive)	4.79 µM (inactive)	2.76 µM (inactive)	5.65 µM (inactive)	0.948 µM (active)	11.5 µM (inactive)	2.24 µM (inactive)	0.501 µM (active)	2.77 µM (inactive)	10.6 µM (inactive)	–	–	–
O=C(c1ccc([N+](=O)[O-])cc1)N1CCCC1	> 100 µM (inactive)	> 100 µM (inactive)	17.7 µM (inactive)	> 100 µM (inactive)	> 100 µM (inactive)	> 100 µM (inactive)	> 100 µM (inactive)	> 100 µM (inactive)	> 100 µM (inactive)	> 100 µM (inactive)	> 100 µM (inactive)	> 100 µM (inactive)	> 100 µM (inactive)	> 100 µM (inactive)	> 100 µM (inactive)	> 100 µM (inactive)	> 100 µM (inactive)	> 100 µM (inactive)	> 100 µM (inactive)	–
CCSC1=C(C#N)C2(CCCCC2)C2=C(O)CC(C)(C)CC2=N1	29.9 µM (inactive)	> 100 µM (inactive)	60.7 µM (inactive)	56.8 µM (inactive)	> 100 µM (inactive)	42.1 µM (inactive)	24.7 µM (inactive)	17.3 µM (inactive)	51.8 µM (inactive)	26.5 µM (inactive)	> 100 µM (inactive)	39.4 µM (inactive)	24.4 µM (inactive)	40.9 µM (inactive)	> 100 µM (inactive)	> 100 µM (inactive)	25.2 µM (inactive)	52.1 µM (inactive)	24.3 µM (inactive)	–
COc1ccc(N[S+]([O-])c2ccc(OC)cc2)cc1 (centres undefined)	12.5 µM (inactive)	64.6 µM (inactive)	> 100 µM (inactive)	> 100 µM (inactive)	41.3 µM (inactive)	15.9 µM (inactive)	95.1 µM (inactive)	25.5 µM (inactive)	14.6 µM (inactive)	5.53 µM (inactive)	> 100 µM (inactive)	21.5 µM (inactive)	–	18.8 µM (inactive)	45.5 µM (inactive)	26.1 µM (inactive)	60.1 µM (inactive)	34 µM (inactive)	88.1 µM (inactive)	–
O=C(CC(O)(C(F)(F)F)C(F)(F)F)c1cccs1	> 10 µM (inactive)	> 10 µM (inactive)	> 10 µM (inactive)	> 10 µM (inactive)	> 10 µM (inactive)	> 10 µM (inactive)	> 10 µM (inactive)	> 10 µM (inactive)	> 10 µM (inactive)	> 10 µM (inactive)	> 10 µM (inactive)	> 10 µM (inactive)	–	> 10 µM (inactive)	> 10 µM (inactive)	> 10 µM (inactive)	> 10 µM (inactive)	> 10 µM (inactive)	–	> 10 µM (inactive)
Cc1ccc(NC(=O)C(=O)C2C(=O)C3=C(CC2(C)C)NC2C=CC=CC2S3)c(C)c1 (centres undefined)	59 µM (inactive)	> 100 µM (inactive)	> 100 µM (inactive)	> 100 µM (inactive)	> 100 µM (inactive)	> 100 µM (inactive)	> 100 µM (inactive)	–	43.8 µM (inactive)	49.3 µM (inactive)	–	> 100 µM (inactive)	–	85.1 µM (inactive)	> 100 µM (inactive)	–	> 100 µM (inactive)	51.3 µM (inactive)	73.8 µM (inactive)	> 100 µM (inactive)
CNC1C(O)C(NC)C2OC3(O)C(=O)CC(C)OC3OC2C1O (centres undefined)	> 100 µM (inactive)	> 100 µM (inactive)	> 100 µM (inactive)	> 100 µM (inactive)	> 100 µM (inactive)	> 100 µM (inactive)	> 100 µM (inactive)	–	> 100 µM (inactive)	> 100 µM (inactive)	> 100 µM (inactive)	> 100 µM (inactive)	–	> 100 µM (inactive)	> 100 µM (inactive)	> 100 µM (inactive)	> 100 µM (inactive)	> 100 µM (inactive)	> 100 µM (inactive)	> 100 µM (inactive)
COc1ccc(C(CC(=O)c2ccccc2)C(=O)c2ccc3c(c2)OCO3)cc1 (centres undefined)	> 100 µM (inactive)	> 100 µM (inactive)	> 100 µM (inactive)	> 100 µM (inactive)	> 100 µM (inactive)	> 100 µM (inactive)	> 100 µM (inactive)	79.3 µM (inactive)	–	> 100 µM (inactive)	> 100 µM (inactive)	–	> 100 µM (inactive)	> 100 µM (inactive)	> 100 µM (inactive)	> 100 µM (inactive)	> 100 µM (inactive)	–	> 100 µM (inactive)	> 100 µM (inactive)
CC1CCCOc2ccc(cc2)/C=N\c2ccc(cc2)CCc2ccc(cc2)/N=C\c2ccc(cc2)OCCC1	> 100 µM (inactive)	> 100 µM (inactive)	> 100 µM (inactive)	> 100 µM (inactive)	> 100 µM (inactive)	> 100 µM (inactive)	> 100 µM (inactive)	> 100 µM (inactive)	> 100 µM (inactive)	> 100 µM (inactive)	> 100 µM (inactive)	> 100 µM (inactive)	> 100 µM (inactive)	> 100 µM (inactive)	> 100 µM (inactive)	> 100 µM (inactive)	> 100 µM (inactive)	> 100 µM (inactive)	> 100 µM (inactive)	–
Cc1ccc(-n2c(C)n[nH]c2=O)cc1	> 100 µM (inactive)	> 100 µM (inactive)	> 100 µM (inactive)	> 100 µM (inactive)	> 100 µM (inactive)	> 100 µM (inactive)	> 100 µM (inactive)	–	> 100 µM (inactive)	> 100 µM (inactive)	> 100 µM (inactive)	> 100 µM (inactive)	–	> 100 µM (inactive)	> 100 µM (inactive)	> 100 µM (inactive)	> 100 µM (inactive)	–	> 100 µM (inactive)	> 100 µM (inactive)
Cc1cc(Nc2ccc(NS(C)(=O)=O)cc2)c2c(ccc3[nH]ccc32)n1	15.1 µM (inactive)	21.7 µM (inactive)	17.8 µM (inactive)	17.7 µM (inactive)	17.6 µM (inactive)	16.1 µM (inactive)	22.8 µM (inactive)	12.5 µM (inactive)	–	28.6 µM (inactive)	16.6 µM (inactive)	9.35 µM (inactive)	21.2 µM (inactive)	15.1 µM (inactive)	7.87 µM (inactive)	13.6 µM (inactive)	18.1 µM (inactive)	28.6 µM (inactive)	36 µM (inactive)	–
CC12C=CC(C)(C3C(=O)C4C(C(=O)C31)C1(C)C=CC4(C)[S+]1[O-])[S+]2[O-] (centres undefined)	–	–	–	–	> 100 µM (inactive)	–	> 100 µM (inactive)	83.4 µM (inactive)	25.4 µM (inactive)	83.9 µM (inactive)	> 100 µM (inactive)	38.4 µM (inactive)	–	21.9 µM (inactive)	–	–	50.6 µM (inactive)	> 100 µM (inactive)	> 100 µM (inactive)	> 100 µM (inactive)
Cc1ccc(S(=O)(=O)c2c(O)c3ccc(O)c(C)c3oc2=O)cc1	> 100 µM (inactive)	> 100 µM (inactive)	> 100 µM (inactive)	> 100 µM (inactive)	> 100 µM (inactive)	> 100 µM (inactive)	> 100 µM (inactive)	> 100 µM (inactive)	> 100 µM (inactive)	> 100 µM (inactive)	> 100 µM (inactive)	> 100 µM (inactive)	–	> 100 µM (inactive)	> 100 µM (inactive)	> 100 µM (inactive)	> 100 µM (inactive)	> 100 µM (inactive)	> 100 µM (inactive)	> 100 µM (inactive)
CCCCCCCCCCCCCCCCP(=O)(O)OP(=O)(O)OCC1OC(n2cnc3c(N)ncnc32)C(O)C1O (centres undefined)	20 µM (inactive)	29 µM (inactive)	20.8 µM (inactive)	35.7 µM (inactive)	43.4 µM (inactive)	30.6 µM (inactive)	26.7 µM (inactive)	22.2 µM (inactive)	19.1 µM (inactive)	16.3 µM (inactive)	27.5 µM (inactive)	22.1 µM (inactive)	–	29 µM (inactive)	29.6 µM (inactive)	25.8 µM (inactive)	20 µM (inactive)	26.4 µM (inactive)	92 µM (inactive)	28.6 µM (inactive)
NS(=O)(=O)c1ccc(NS(=O)(=O)c2ccc(NC(=O)N(c3ccccc3)c3ccccc3)cc2)cc1	> 100 µM (inactive)	> 100 µM (inactive)	> 100 µM (inactive)	> 100 µM (inactive)	32.3 µM (inactive)	24.9 µM (inactive)	> 100 µM (inactive)	27.3 µM (inactive)	–	59 µM (inactive)	41.3 µM (inactive)	30.5 µM (inactive)	> 100 µM (inactive)	68.2 µM (inactive)	2.7 µM (inactive)	26.1 µM (inactive)	> 100 µM (inactive)	> 100 µM (inactive)	> 100 µM (inactive)	–
COc1c2occc2cc2ccc(=O)oc12 [METHOXSALEN]	> 100 µM (inactive)	> 100 µM (inactive)	> 100 µM (inactive)	> 100 µM (inactive)	> 100 µM (inactive)	> 100 µM (inactive)	> 100 µM (inactive)	–	> 100 µM (inactive)	–	> 100 µM (inactive)	–	> 100 µM (inactive)	> 100 µM (inactive)	> 100 µM (inactive)	> 100 µM (inactive)	> 100 µM (inactive)	–	–	> 100 µM (inactive)
